Test results published in patent publication US11767520B2, “Compositions and methods for treating lung inflammation” (aTyr Pharma, Inc., priority 2017, dated 2023).

Tests used:
[1] = Body weight, BLM rat model (Example 2); format: in vivo, rat (male Sprague Dawley); conditions: BLM-induced rats; Nintedanib 60 mg/kg PO daily; Test Article = HRS^FC1 0.1-3 mg/kg IV weekly
Method: PBS or BLM was administered under isoflurane anesthesia.
In-life, body weights were measured and clinical observations were conducted daily. On Day 8 and Day 15, animals were removed from their home cages and placed individually into whole body plethysmography chambers. After a 20-minute acclimatization phase, respiratory parameters were recorded for 10 minutes.

[2] = tested on: bleomycin-induced lung fibrosis; experiment: Histological fibrosis (modified Ashcroft) score, BLM rat model (Example 2); format: in vivo, rat (male Sprague Dawley); conditions: BLM-induced rats
Method: The five lung lobes were collected and weighed. The right lung lobes were inflated and fixed in 10% neutral buffered formalin and embedded in paraffin for histological analysis. An approximately 50 mg piece of the left lung lobe was snap frozen and stored at −80° C. for potential RNA analysis. The remainder of the lobe was also snap frozen until analyzed for collagen content.
Sections for histology were stained using picrosirius red and were scored in a blinded fashion (1 score for each of the 4 lobes) by a veterinary pathologist using a modified Ashcroft score (Hubner et al., 2008). Hydroxyproline content was determined in the left lung lobe using a mass spectrometry method.
Slides were read by a veterinary pathologist and each of the 4 lobes evaluated was assigned 4 scores [Ashcroft for fibrosis (scores range from 0 to 8), perivascular/peribronchiolar inflammatory cell infiltrate (scores range from 0 to 5), interstitial/alveolar inflammatory cell infiltrate (scores range from 0 to 5), type II pneumocyte hyperplasia (scores range from 0 to 5)].
Having noted the high variability in mean Ashcroft Index Scores within groups and also in lung pathology within each individual due to the focal nature of the model, we analyzed Ashcroft scores from all fields scored (4 per animal), which increased the number of observations to 24-32 in BLM-induced groups.

[3] = tested on: bleomycin-induced lung inflammation; experiment: Interstitial/alveolar inflammatory cell infiltrate score, BLM rat model, combination study (Example 3); format: in vivo, rat (male Sprague Dawley); conditions: BLM-induced rats; alone or in combination, vs PO plus IV vehicles; data not shown
Method: (§1) The five lung lobes were collected and weighed. On Day 17, the right accessory lobe was retained and desiccated to obtain dry weight. The remaining right lung lobes were inflated and fixed in 10% neutral buffered formalin and embedded in paraffin for histological analysis. An approximately 50 mg piece of the left lung lobe was snap frozen and stored at −80° C. for potential RNA analysis. The remainder of the lobe was also snap frozen until analyzed for collagen content.
(§2) Sections for histology were stained using picrosirius red and were scored in a blinded fashion (1 score for each of the 3-4 lobes) by a veterinary pathologist using a modified Ashcroft score (Hubner et al., 2008). Hydroxyproline content was determined in the left lung lobe using a mass spectrometry method.
(§3) Slides were read by a veterinary pathologist and each of the 3 lobes evaluated was assigned 4 score types [Ashcroft for fibrosis (scores range from 0 to 8), perivascular/peribronchiolar inflammatory cell infiltrate (scores range from 0 to 5), interstitial/alveolar inflammatory cell infiltrate (scores range from 0 to 5), type II pneumocyte hyperplasia (scores range from 0 to 5)].

[4] = Body weight, BLM mouse model (Example 1); format: in vivo, mouse (male C57Bl/6J); conditions: BLM-induced mice; daily PO from Day 0: dexamethasone 0.25 mg/kg, Nintedanib 60 mg/kg
Method: (§4) Lung inflammation and fibrosis were induced in male C57Bl/6J mice by oropharyngeal administration of BLM. After the habituation phase mice were randomized based on body weight over the different groups. Under isoflurane anesthesia, 50 μl PBS or BLM was dripped onto the vocal cords facilitating aspiration. Mice were sacrificed at day 21 using a terminal bleed under isoflurane anesthesia.
(§5) Daily oral treatments commenced on Day 0, while daily IV treatments commenced on Day 8. Dosing was planned to continue until the day of termination (Day 21), however, due to high mortality in IV treated groups (see results), IV dosing was skipped on Day 19 and Day 20. […] Subsequently, the mice received 8% D20 (Kinemed, Emeryville) drinking water until sacrifice to maintain labeling of newly formed collagen. Body weight was monitored three times a week.

[5] = tested on: bleomycin-induced lung fibrosis; experiment: Histological fibrosis (modified Ashcroft) score, BLM rat model, combination study (Example 3); format: in vivo, rat (male Sprague Dawley); conditions: BLM-induced rats; alone or in combination, vs PO plus IV vehicles; data not shown
Method: as §1, §2, §3

[6] = tested on: bleomycin-induced lung fibrosis; experiment: Histological fibrosis (modified Ashcroft) score, BLM mouse model (Example 1); format: in vivo, mouse (male C57Bl/6J); conditions: BLM-induced mice
Method: The five lung lobes were collected and isolated. Wet weight of the medial and accessory lung lobes was recorded. The lobes were then snap frozen and stored at <−70° C. until use for hydroxyproline analysis. The left lung lobe was inflated and fixed for 48 hours in 4% formaldehyde and embedded in paraffin for histological analysis. The cranial lung lobe was snap frozen and stored at −80° C. until shipment to Kinemed for the determination of new collagen formation.
Sections of the left lung lobe were stained using Masson's Trichrome and were scored in a blinded fashion using a modified Ashcroft score (Hubner et al., BioTechniques. 44:507-511, 514-507, 2008). Hydroxyproline content was determined in the medial and accessory lung lobes using acid hydrolysis followed by a chromogenic assay (QuickZyme Biosciences, Leiden, Netherlands). Newly formed collagen was measured in the cranial lung lobe by Kinemed Inc., Emeryville, USA using the fraction of body water enriched in 2H for normalization.

[7] = Body weight, BLM rat model, combination study (Example 3); format: in vivo, rat (male Sprague Dawley); conditions: BLM-induced rats; Nintedanib, Pirfenidone or Test Article (HRS^FC1 3 mg/kg IV weekly), alone or in combination, from Day 9
Method: PBS or BLM was administered under isoflurane anesthesia. Excess rats were induced with BLM and used to replace any animals with excessive body weight loss.
All treatments commenced on Day 9.
In-life, body weights were measured and clinical observations were conducted daily. On Days 8, 15 and 21, animals were removed from their home cages and placed individually into whole body plethysmography chambers. After a 20-minute acclimatization phase, respiratory parameters were recorded for 10 minutes. Pre-study and on Days 10 and Day 17, whole blood was obtained from the tail vein and processed to serum for measurement of HRS^FC1.

[8] = tested on: bleomycin-induced lung inflammation and fibrosis; experiment: Cell counts in BAL fluid, BLM mouse model (Example 1); format: in vivo, mouse (male C57Bl/6J); conditions: BLM-induced mice; daily PO from Day 0: dexamethasone 0.25 mg/kg, Nintedanib 60 mg/kg; vs PO vehicle
Method: as §4, §5
The lungs were flushed two times with 750 μl PBS, combined into one bronchoalveolar lavage (BAL) sample, and stored on ice until centrifugation. The supernatant was collected and stored frozen (<−70° C.). The erythrocytes in the cell pellet were lysed and the remaining cells were resuspended in 100 μl PBS. 20 μl was diluted in trypan blue solution and used for counting the live cells using a hemocytometer.

COC(=O)c1ccc2c(c1)NC(=O)/C2=C(\Nc1ccc(N(C)C(=O)CN2CCN(C)CC2)cc1)c1ccccc1 [Nintedanib, nintedanib]
Body weight curves vs respective controls [1]: None of the groups treated with Nintedanib or Test Article had body weight curves that significantly differed
Decrease of group mean Ashcroft score vs respective vehicle ([2]; Day 22, Nintedanib PO, Test Article = HRS^FC1 1 mg/kg IV on Days 2, 9 and 16, not significant): 5%
Group mean Ashcroft score, significance vs respective vehicle ([2]; Day 22, Nintedanib PO, Test Article = HRS^FC1 IV): did not meet statistical criteria
Overall effects in this experiment ([2]; Nintedanib (50 mg/kg/dose) starting on Day 9, as printed in Summary): no significant effects
Interstitial inflammatory cell infiltrate [3]: no significant effect
Body weight, of initial body weights [4]: around 90%
Interstitial inflammatory cell infiltrate (as printed in the Ashcroft score paragraph) [5]: no significant effect
Group mean histological (Ashcroft) score, significance vs respective vehicle ([6]; left lung lobe, Day 21, dexamethasone/Nintedanib PO, Test Article = HisRS1^N8 IV): did not result in a significant decrease
Overall effects in this experiment ([6]; Nintedanib 60 mg/kg/dose from day of BLM instillation): no significant effects
Body weight curves vs respective controls [7]: None of the groups treated with Nintedanib, Pirfenidone or Test Article alone or in combination had body weight curves that significantly differed
Live cells counted in BAL fluid at termination [8]: did not significantly affect
